Values quoted from earlier work as cited in PMC12866175 (European journal of nuclear medicine and molecular imaging, 2021).

What was measured:
[1] = system: NETs; conditions: cited from earlier work
[2] = system: tumor; conditions: human, in vivo; cited from earlier work

[^177Lu]Lu-DOTA-TATE
patients achieving stable disease [1]: 26–55%
patients treatment refractory [1]: 18–32%
time after starting treatment within which half progress [1]: 2 to 3 years
tumor residence time compared with [^177Lu]Lu-DOTATOC [2]: greater tumor residence time
